Measurements reported in ChEMBL document CHEMBL4052645, “Discovery of potent and efficacious pyrrolopyridazines as dual JAK1/3 inhibitors” (Bioorg Med Chem Lett, 2017).

Legend:
[1] = target: Serine/threonine-protein kinase TAO1 (Homo sapiens) (UniProt Q7L7X3); test: Inhibition of wild-type human partial length TAO1 (M1 to A320 residues) expressed in mammalian expression system assessed as residual activity at 50 nM by Kinomescan method relative to control
[2] = target: Maternal embryonic leucine zipper kinase (Homo sapiens) (UniProt Q14680); test: Inhibition of wild-type human full length MELK (M1 to V651 residues) expressed in bacterial expression system assessed as residual activity at 50 nM by Kinomescan method relative to control
[3] = target: Mitogen-activated protein kinase kinase kinase 5 (Homo sapiens) (UniProt Q99683); test: Inhibition of wild-type human partial length MAP3K5 (E648 to S964 residues) expressed in bacterial expression system assessed as residual activity at 50 nM by Kinomescan method relative to control
[4] = target: Mitogen-activated protein kinase kinase kinase 13 (Homo sapiens) (UniProt O43283); test: Inhibition of wild-type human full length LZK (M1 to W966 residues) expressed in mammalian expression system assessed as residual activity at 50 nM by Kinomescan method relative to control
[5] = target: Receptor-interacting serine/threonine-protein kinase 2 (Homo sapiens) (UniProt O43353); test: Inhibition of wild-type human partial length RIPK2 (M1 to K310 residues) expressed in bacterial expression system assessed as residual activity at 50 nM by Kinomescan method relative to control
[6] = target: Serine/threonine-protein kinase D3 (Homo sapiens) (UniProt O94806); test: Inhibition of wild-type human partial length PKD3 (S543 to E863 residues) expressed in bacterial expression system assessed as residual activity at 50 nM by Kinomescan method relative to control
[7] = target: Ribosomal protein S6 kinase alpha-1 (Homo sapiens) (UniProt Q15418); test: Inhibition of wild-type human partial length N-terminal RSK1 Kinase domain 1 (M1 to E388 residues) expressed in bacterial expression system assessed as residual activity at 50 nM by Kinomescan method relative to control
[8] = target: Dual specificity mitogen-activated protein kinase kinase 3 (Homo sapiens) (UniProt P46734); test: Inhibition of wild-type human full length MAP2K3 (M1 to S318 residues) expressed in mammalian expression system assessed as residual activity at 50 nM by Kinomescan method relative to control
[9] = target: Platelet-derived growth factor receptor alpha (Homo sapiens) (UniProt P16234); test: Inhibition of wild-type human partial length PDGFRA (V575 to D1002 residues) expressed in mammalian expression system assessed as residual activity at 50 nM by Kinomescan method relative to control
[10] = target: Glycogen synthase kinase-3 beta (Homo sapiens) (UniProt P49841); test: Inhibition of wild-type human full length GSK3B (M1 to T433 residues) expressed in mammalian expression system assessed as residual activity at 50 nM by Kinomescan method relative to control
Chain of Glycogen synthase kinase-3 beta (Homo sapiens) (P49841 whole entry, looked up, the tested form may be a part): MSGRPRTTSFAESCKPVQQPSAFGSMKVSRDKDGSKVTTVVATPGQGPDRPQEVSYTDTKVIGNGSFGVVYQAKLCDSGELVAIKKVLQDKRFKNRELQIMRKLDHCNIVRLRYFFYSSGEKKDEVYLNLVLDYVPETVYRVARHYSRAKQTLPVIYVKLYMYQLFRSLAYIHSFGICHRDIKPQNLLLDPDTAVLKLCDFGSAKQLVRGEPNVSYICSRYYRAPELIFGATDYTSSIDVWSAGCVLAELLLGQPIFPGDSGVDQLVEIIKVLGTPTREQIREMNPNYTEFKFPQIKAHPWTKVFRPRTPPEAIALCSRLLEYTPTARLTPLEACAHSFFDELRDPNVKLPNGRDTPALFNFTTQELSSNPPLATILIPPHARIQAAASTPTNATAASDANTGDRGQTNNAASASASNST

[11] = target: Calcium/calmodulin-dependent protein kinase type II subunit beta (Homo sapiens) (UniProt Q13554); test: Inhibition of wild-type human partial length CAMK2B (M1 to Q380 residues) expressed in bacterial expression system assessed as residual activity at 50 nM by Kinomescan method relative to control
[12] = target: AP2-associated protein kinase 1 (Homo sapiens) (UniProt Q2M2I8); test: Inhibition of human wild-type AAK1 (G25 to L333 residues) expressed in bacterial expression system assessed as residual activity at 50 nM by Kinomescan method relative to control
[13] = target: Serine/threonine-protein kinase Nek6 (Homo sapiens) (UniProt Q9HC98); test: Inhibition of wild-type human full length NEK6 (M8 to T313 residues) expressed in bacterial expression system assessed as residual activity at 50 nM by Kinomescan method relative to control
[14] = target: Serine/threonine-protein kinase PAK 2 (Homo sapiens) (UniProt Q13177); test: Inhibition of wild-type human partial length PAK2 (P151 to R525 residues) expressed in bacterial expression system assessed as residual activity at 50 nM by Kinomescan method relative to control
Chain of Serine/threonine-protein kinase PAK 2 (Homo sapiens) (Q13177 whole entry, the tested form may be a part): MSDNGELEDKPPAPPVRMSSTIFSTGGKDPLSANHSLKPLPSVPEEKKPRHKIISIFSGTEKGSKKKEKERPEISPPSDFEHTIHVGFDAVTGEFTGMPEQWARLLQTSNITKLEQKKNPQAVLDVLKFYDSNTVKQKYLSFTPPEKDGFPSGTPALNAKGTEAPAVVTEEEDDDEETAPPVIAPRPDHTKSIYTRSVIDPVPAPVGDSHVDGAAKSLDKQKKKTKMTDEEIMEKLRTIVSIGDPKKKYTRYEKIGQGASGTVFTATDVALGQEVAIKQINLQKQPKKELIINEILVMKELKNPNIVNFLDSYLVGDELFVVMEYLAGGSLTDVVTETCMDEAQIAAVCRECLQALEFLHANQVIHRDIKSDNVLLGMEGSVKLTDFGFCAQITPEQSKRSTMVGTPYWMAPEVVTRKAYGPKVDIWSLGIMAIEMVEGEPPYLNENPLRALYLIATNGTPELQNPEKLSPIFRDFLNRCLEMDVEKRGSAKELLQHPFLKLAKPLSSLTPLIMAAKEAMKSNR

[15] = target: Mitogen-activated protein kinase 8 (Homo sapiens) (UniProt P45983); test: Inhibition of wild-type human full length JNK1 (M1 to Q384 residues) expressed in mammalian expression system assessed as residual activity at 50 nM by Kinomescan method relative to control
Chain of Mitogen-activated protein kinase 8 (Homo sapiens) (P45983 whole entry, the tested form may be a part): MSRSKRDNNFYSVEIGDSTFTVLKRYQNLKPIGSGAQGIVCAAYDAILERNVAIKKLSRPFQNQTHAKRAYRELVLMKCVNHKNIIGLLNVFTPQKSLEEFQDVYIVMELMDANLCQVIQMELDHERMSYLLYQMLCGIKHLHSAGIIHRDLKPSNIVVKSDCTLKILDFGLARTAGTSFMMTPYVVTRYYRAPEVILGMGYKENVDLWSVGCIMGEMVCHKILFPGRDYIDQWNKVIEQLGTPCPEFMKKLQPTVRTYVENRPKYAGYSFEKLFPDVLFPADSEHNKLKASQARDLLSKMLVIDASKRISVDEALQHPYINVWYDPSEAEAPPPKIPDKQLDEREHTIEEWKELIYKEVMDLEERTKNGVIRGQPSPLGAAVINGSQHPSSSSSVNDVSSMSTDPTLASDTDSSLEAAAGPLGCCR

[16] = target: Receptor tyrosine-protein kinase erbB-4 (Homo sapiens) (UniProt Q15303); test: Inhibition of wild-type human partial length ERBB4 (L690 to K994 residues) expressed in bacterial expression system assessed as residual activity at 50 nM by Kinomescan method relative to control
Chain of Receptor tyrosine-protein kinase erbB-4 (Homo sapiens) (Q15303 whole entry, the tested form may be a part): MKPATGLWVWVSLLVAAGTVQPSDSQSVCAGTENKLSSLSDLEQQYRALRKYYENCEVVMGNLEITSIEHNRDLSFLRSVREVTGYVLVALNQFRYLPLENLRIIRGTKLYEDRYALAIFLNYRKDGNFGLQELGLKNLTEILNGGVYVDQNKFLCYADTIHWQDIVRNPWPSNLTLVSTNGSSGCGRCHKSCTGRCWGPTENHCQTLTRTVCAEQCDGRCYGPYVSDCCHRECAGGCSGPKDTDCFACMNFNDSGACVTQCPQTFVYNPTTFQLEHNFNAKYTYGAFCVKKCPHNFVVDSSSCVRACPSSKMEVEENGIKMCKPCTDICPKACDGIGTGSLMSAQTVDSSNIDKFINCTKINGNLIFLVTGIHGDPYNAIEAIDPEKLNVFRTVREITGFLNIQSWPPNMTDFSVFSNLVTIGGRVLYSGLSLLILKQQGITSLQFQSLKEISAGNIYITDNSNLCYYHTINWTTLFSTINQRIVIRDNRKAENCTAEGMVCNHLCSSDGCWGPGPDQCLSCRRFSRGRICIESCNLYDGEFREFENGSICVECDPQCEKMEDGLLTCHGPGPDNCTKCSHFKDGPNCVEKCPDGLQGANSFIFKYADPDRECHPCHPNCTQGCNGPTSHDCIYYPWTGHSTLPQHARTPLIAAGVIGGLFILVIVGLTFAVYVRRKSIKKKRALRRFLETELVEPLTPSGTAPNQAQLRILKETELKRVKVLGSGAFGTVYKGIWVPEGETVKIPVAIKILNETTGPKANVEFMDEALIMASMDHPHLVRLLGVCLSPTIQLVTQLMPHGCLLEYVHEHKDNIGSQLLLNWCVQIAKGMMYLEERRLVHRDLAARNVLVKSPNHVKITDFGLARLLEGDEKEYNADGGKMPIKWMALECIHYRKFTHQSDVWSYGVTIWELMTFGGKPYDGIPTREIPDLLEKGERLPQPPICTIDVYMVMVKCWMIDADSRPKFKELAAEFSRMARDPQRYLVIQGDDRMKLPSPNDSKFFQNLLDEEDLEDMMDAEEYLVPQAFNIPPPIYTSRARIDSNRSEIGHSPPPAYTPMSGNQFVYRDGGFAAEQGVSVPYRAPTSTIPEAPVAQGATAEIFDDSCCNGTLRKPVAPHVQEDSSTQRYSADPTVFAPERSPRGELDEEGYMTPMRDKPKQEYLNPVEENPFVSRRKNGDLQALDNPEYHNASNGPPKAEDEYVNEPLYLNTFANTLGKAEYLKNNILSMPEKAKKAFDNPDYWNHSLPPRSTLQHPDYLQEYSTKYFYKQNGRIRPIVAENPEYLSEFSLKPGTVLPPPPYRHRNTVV

[17] = target: Non-receptor tyrosine-protein kinase TYK2 (Homo sapiens, UniProt P29597); test: Inhibition of wild-type human partial length TYK2 JH2 pseudokinase domain (G556 to D888 residues) expressed in mammalian expression system assessed as residual activity at 50 nM by Kinomescan method relative to control
[18] = target: Glycogen synthase kinase-3 alpha (Homo sapiens) (UniProt P49840); test: Inhibition of wild-type human full length GSK3A (M1 to S483 residues) expressed in bacterial expression system assessed as residual activity at 50 nM by Kinomescan method relative to control
[19] = target: Phosphatidylinositol 4,5-bisphosphate 3-kinase catalytic subunit delta isoform (Homo sapiens) (UniProt O00329); test: Inhibition of wild-type human partial length PIK3CD (R108 to Q1044 residues) expressed in mammalian expression system assessed as residual activity at 50 nM by Kinomescan method relative to control
Chain of Phosphatidylinositol 4,5-bisphosphate 3-kinase catalytic subunit delta isoform (Homo sapiens) (O00329 whole entry, the tested form may be a part, canonical isoform): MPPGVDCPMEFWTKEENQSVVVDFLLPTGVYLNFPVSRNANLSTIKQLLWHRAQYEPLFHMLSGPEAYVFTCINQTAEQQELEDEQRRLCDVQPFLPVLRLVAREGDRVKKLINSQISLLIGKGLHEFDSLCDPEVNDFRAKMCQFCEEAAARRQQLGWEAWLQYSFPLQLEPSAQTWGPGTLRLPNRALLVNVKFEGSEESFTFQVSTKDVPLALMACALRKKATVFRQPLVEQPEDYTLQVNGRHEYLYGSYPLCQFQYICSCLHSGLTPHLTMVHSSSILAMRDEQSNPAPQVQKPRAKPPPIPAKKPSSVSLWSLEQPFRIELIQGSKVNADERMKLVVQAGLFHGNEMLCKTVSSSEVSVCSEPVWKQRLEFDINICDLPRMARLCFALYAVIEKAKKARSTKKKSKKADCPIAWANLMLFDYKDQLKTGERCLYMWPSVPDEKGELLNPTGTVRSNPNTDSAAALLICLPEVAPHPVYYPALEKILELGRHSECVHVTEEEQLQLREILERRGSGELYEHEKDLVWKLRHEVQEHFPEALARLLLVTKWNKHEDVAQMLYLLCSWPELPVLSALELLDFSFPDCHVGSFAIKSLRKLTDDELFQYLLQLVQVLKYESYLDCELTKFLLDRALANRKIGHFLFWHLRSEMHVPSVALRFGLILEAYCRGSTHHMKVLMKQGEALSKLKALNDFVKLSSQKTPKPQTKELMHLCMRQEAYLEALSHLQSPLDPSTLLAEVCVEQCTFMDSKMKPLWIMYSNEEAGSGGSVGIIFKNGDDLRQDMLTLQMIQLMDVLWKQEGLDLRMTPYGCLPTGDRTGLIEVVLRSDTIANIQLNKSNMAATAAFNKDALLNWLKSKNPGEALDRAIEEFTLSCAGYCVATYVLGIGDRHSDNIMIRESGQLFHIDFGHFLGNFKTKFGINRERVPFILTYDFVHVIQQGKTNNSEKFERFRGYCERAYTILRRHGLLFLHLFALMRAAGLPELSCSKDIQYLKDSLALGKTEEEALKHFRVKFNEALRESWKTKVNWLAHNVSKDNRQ

[20] = target: Inhibitor of nuclear factor kappa-B kinase subunit beta (Homo sapiens) (UniProt O14920); test: Inhibition of wild-type human full length IKK-beta (M1 to S756 residues) expressed in mammalian expression system assessed as residual activity at 50 nM by Kinomescan method relative to control
[21] = target: Serine/threonine-protein kinase LATS1 (Homo sapiens) (UniProt O95835); test: Inhibition of wild-type human partial length LATS1 (Q678 to V1130 residues) expressed in bacterial expression system assessed as residual activity at 50 nM by Kinomescan method relative to control
Chain of Serine/threonine-protein kinase LATS1 (Homo sapiens) (O95835 whole entry, the tested form may be a part): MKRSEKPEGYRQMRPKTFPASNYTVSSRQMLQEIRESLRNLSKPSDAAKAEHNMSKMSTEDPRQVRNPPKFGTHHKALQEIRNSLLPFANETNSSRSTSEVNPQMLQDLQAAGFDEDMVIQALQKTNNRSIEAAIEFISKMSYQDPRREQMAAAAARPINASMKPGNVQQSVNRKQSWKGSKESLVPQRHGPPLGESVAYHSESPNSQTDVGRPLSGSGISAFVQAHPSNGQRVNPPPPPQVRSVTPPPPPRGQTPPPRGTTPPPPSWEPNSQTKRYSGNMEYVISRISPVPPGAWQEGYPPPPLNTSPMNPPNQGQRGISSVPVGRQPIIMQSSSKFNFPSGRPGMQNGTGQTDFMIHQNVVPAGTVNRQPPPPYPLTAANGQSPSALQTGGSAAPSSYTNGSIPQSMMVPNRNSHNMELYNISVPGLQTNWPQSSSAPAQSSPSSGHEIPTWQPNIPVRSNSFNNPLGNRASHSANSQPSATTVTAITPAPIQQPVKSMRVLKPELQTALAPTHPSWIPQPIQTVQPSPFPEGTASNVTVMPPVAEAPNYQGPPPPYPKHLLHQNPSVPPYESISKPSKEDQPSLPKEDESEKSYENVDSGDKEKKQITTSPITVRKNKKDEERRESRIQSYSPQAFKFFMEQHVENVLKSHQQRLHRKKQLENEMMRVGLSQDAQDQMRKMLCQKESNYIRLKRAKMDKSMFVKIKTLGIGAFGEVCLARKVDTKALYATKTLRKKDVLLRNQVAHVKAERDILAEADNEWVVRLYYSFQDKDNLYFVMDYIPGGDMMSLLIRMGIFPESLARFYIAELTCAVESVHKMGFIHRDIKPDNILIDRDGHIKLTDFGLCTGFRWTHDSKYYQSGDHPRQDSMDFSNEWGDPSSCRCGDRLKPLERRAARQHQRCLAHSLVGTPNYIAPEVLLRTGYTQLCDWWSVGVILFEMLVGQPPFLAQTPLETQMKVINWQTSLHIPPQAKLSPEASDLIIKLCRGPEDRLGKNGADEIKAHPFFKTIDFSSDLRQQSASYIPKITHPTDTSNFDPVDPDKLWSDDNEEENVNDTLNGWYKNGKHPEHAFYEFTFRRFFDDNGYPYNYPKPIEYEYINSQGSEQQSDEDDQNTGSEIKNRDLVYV

[22] = target: Homeodomain-interacting protein kinase 4 (Homo sapiens) (UniProt Q8NE63); test: Inhibition of wild-type human partial length HIPK4 (M1 to V384 residues) expressed in bacterial expression system assessed as residual activity at 50 nM by Kinomescan method relative to control
[23] = target: Cyclin-dependent kinase-like 1 (Homo sapiens) (UniProt Q00532); test: Inhibition of wild-type human full length CDKL1 (M1 to I358 residues) expressed in mammalian expression system assessed as residual activity at 50 nM by Kinomescan method relative to control
[24] = target: Receptor-interacting serine/threonine-protein kinase 4 (Homo sapiens) (UniProt P57078); test: Inhibition of wild-type human partial length ANKRD3 (M1 to V303 residues) expressed in mammalian expression system assessed as residual activity at 50 nM by Kinomescan method relative to control
[25] = target: Phosphorylase b kinase gamma catalytic chain, skeletal muscle/heart isoform (Homo sapiens) (UniProt Q16816); test: Inhibition of wild-type human full length PHKG1 (M1 to Y387 residues) expressed in bacterial expression system assessed as residual activity at 50 nM by Kinomescan method relative to control

SMILES | Activity [1] | Activity [2] | Activity [3] | Activity [4] | Activity [5] | Activity [6] | Activity [7] | Activity [8] | Activity [9] | Activity [10] | Activity [11] | Activity [12] | Activity [13] | Activity [14] | Activity [15] | Activity [16] | Activity [17] | Activity [18] | Activity [19] | Activity [20] | further results
COc1ccc(-c2cc3c(N[C@@H]4CC[C@](C)(N)C4(C)C)c(C(N)=O)cnn3c2)cn1 | 59% | 79% | 100% | 90% | 100% | 73% | 100% | 92% | 97% | 86% | 92% | 73% | 97% | 77% | 88% | 100% | 100% | 100% | 100% | 100% | Activity [21]: 90%; Activity [22]: 80%; Activity [23]: 100%; Activity [24]: 98%; Activity [25]: 100%
CC1(C)[C@H](Nc2c(C(N)=O)cnn3cc(-c4ccccc4)cc23)CC[C@]1(C)N | 54% | 79% | 100% | 93% | 93% | 96% | 67% | 96% | 67% | 100% | 78% | 63% | 88% | 76% | 81% | 87% | 100% | 65% | 44% | 73% | Activity [21]: 91%; Activity [22]: 100%; Activity [23]: 97%; Activity [24]: 59%; Activity [25]: 81%
